The values that follow come from doi:10.1101/2022.11.21.517375v1, “Fragment-Based Hit Discovery via Unsupervised Learning of Fragment-Protein Complexes” (biorxiv, 2022).

The target of assay [1] is T1, SARS-CoV-2 nsp3-Mac1 (HTRF assay) (Severe acute respiratory syndrome coronavirus 2, UniProt P0DTD1).
T1 construct: gene rep
In words: HTRF displacement of ADP-ribose-conjugated biotin peptide. Type of assay: binding.

For assay [2], the target named is T2, SARS-CoV-2 main protease (Mpro) (Severe acute respiratory syndrome coronavirus 2, UniProt P0DTD1).
T2 construct: gene rep
In words: fluorescence protease assay, fluorogenic peptide, dose response. Type of assay: biochemical.

The target in assay [3] is T3, Mac1 (P43 crystals) (Severe acute respiratory syndrome coronavirus 2, UniProt P0DTD1).
T3 construct: gene rep
Description: X-ray crystallography, crystal soaking, PanDDA. The assay is classed as binding. The note with it: active site; P43 crystals soaked at 10 or 20 mM for 2-[…].

Like-named read-outs stand apart in the source and are kept apart here.

As to `CCC(CNc1ncnc2[nH]cnc12)NC(=O)CCC1CCCCC1` (racemic) [Z5551425673], in assay [1] (read-out: % inhibition at 250 μM), the inhibition at 250 µM was 30.1%.

In assay [2], `COc1ccc2c(C(=O)NNc3nc4ccccc4[nH]3)cc(=O)[nH]c2c1` [ALP-UNI-ed5cdfd2-1] gave an IC50 of 19.4 µM.

For the compound `O=C(NNc1nc2ccccc2[nH]1)c1cc(=O)[nH]c2ccccc12` [WIL-UNI-d4749f31-37], in assay [2] (pH 7.3, 20 mM HEPES, 1.0 mM TCEP, 50 mM NaCl, 5 nM Mpro, 37 nM substrate, 15 min pre-incubation, room temperature, read-out: IC50), the IC50 came to 25.8 µM.

With `CCNc1nc2c(cnn2C)c(=O)[nH]1` [Z1102995175], in assay [1] (pH 7.0, 25 mM HEPES, 20 mM NaCl, […] protein, 400 nM peptide, room temperature), the “% inhibition at 250 μM” value came to 24.8%.

As to `CC[C@@H](CNc1ncnc2[nH]cnc12)NC(=O)CCC1CCCCC1` [Z5551425673 (S-stereoisomer)], the “X-ray crystallography, crystal soaking, PanDDA” value in assay [3] is given as “structure of Z5551425673 (as the S-stereoisomer) bound to the active site”.
